In patent US6737383B1, “Herbicidal oxadiazolidines” (priority 1999, dated 2004):

Legend:
[1] = system: surinam grass; assay: Test B pre/postemergence surinam grass; type: in vivo, Brachiaria decumbens
Summary of the method: (§1)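 Test chemicals in a non-phytotoxic solvent mixture with surfactant were sprayed preemergence onto planted seeds and postemergence onto plants 2 to 18 cm tall (1- to 4-leaf stage). After twelve to sixteen days in a greenhouse, injury was visually rated against untreated controls from 0 (no effect) to 10 (complete control).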

[2] = system: soybean; assay: Test B pre/postemergence soybean; type: in vivo, Glycine max
Summary of the method: as §1

[3] = system: blackgrass; assay: Test B pre/postemergence blackgrass; type: in vivo, Alopecurus myosuroides
Summary of the method: as §1

[4] = system: corn; assay: Test B pre/postemergence corn; type: in vivo, Zea mays
Summary of the method: as §1

[5] = system: sugar beet; assay: Test B pre/postemergence sugar beet; type: in vivo, Beta vulgaris
Summary of the method: as §1

[6] = system: wheat; assay: Test B pre/postemergence wheat; type: in vivo, Triticum aestivum
Summary of the method: as §1

[7] = system: purple nutsedge; assay: Test B pre/postemergence purple nutsedge; type: in vivo, Cyperus rotundus
Summary of the method: as §1

[8] = system: wild oat; assay: Test B pre/postemergence wild oat; type: in vivo, Avena fatua
Summary of the method: as §1

[9] = system: bedstraw; assay: Test B pre/postemergence bedstraw; type: in vivo, Galium aparine
Summary of the method: as §1

[10] = system: morningglory; assay: Test B pre/postemergence morningglory; type: in vivo, Ipomoea hederacea
Summary of the method: as §1

[11] = system: pigweed; assay: Test B pre/postemergence pigweed; type: in vivo, Amaranthus retroflexus
Summary of the method: as §1

[12] = system: cocklebur; assay: Test B pre/postemergence cocklebur; type: in vivo, Xanthium strumarium
Summary of the method: as §1

[13] = system: crabgrass; assay: Test B pre/postemergence crabgrass; type: in vivo, Digitaria sanguinalis
Summary of the method: as §1

[14] = system: rape; assay: Test B pre/postemergence rape; type: in vivo, Brassica napus
Summary of the method: as §1

[15] = system: giant foxtail; assay: Test B pre/postemergence giant foxtail; type: in vivo, Setaria faberii
Summary of the method: as §1

[16] = system: velvetleaf; assay: Test B pre/postemergence velvetleaf; type: in vivo, Abutilon theophrasti
Summary of the method: as §1

[17] = Postemergence, Rate 62 g/ha, scale 0 to 10, 0 is no effect, 10 is complete control
[18] = Postemergence, Rate 125 g/ha, scale of 0 to 10 where 0 is no effect and 10 is complete control
[19] = Preemergence, Rate 125 g/ha, scale of 0 to 10 where 0 is no effect and 10 is complete control
[20] = Preemergence, Rate 250 g/ha, scale 0 (no effect) to 10 (complete control)
[21] = Rate 250 g/ha, Postemergence, scale 0 to 10, 0 is no effect, 10 is complete control
[22] = Rate 500 g/ha, Postemergence, scale 0 to 10, 0 is no effect, 10 is complete control
[23] = Rate 500 g/ha, Preemergence, scale 0 to 10 (0 no effect, 10 complete control)
[24] = Rate 62 g/ha, Preemergence, scale 0 to 10

Cc1nc(C(C)n2c(=O)on(C(=O)N(c3ccc(F)cc3)C(C)C)c2=O)sc1C (stereo not shown) [Compound 757]
Plant response rating, B. signalgrass [1, 17]: 0
B. signalgrass plant response rating [1, 18]: 0
B. signalgrass plant response rating ([1]; Preemergence, Rate 62 g/ha, scale of 0 to 10 where 0 is no effect and 10 is complete control): 0
Plant response rating, B. signalgrass [1, 19]: 0
B. signalgrass plant response rating [1, 20]: 2
B. signalgrass plant response rating [1, 21]: 0
B. signalgrass plant response rating [1, 22]: 1
B. signalgrass plant response rating [1, 23]: 7
Plant response rating, Soybean [2, 17]: 3
Plant response rating, Soybean [2, 19]: 0
Soybean plant response rating [2, 20]: 0
Soybean plant response rating [2, 24]: 0
Soybean plant response rating [2, 21]: 4
Soybean plant response rating [2, 22]: 4
Soybean plant response rating [2, 23]: 0
Plant response rating, Blackgrass [3, 17]: 0
Blackgrass plant response rating [3, 18]: 0
Plant response rating, Blackgrass [3, 19]: 2
Blackgrass plant response rating [3, 20]: 3
Blackgrass plant response rating [3, 24]: 1
Blackgrass plant response rating [3, 21]: 3
Blackgrass plant response rating [3, 22]: 4
Blackgrass plant response rating [3, 23]: 7
Plant response rating, Corn [4, 17]: 0
Corn plant response rating [4, 18]: 0
Plant response rating, Corn [4, 19]: 0
Corn plant response rating [4, 20]: 0
Corn plant response rating [4, 24]: 0
Corn plant response rating [4, 21]: 0
Corn plant response rating [4, 22]: 0
Corn plant response rating [4, 23]: 0
Plant response rating, Sugarbeets [5, 17]: 0
Plant response rating, Sugarbeets [5, 19]: 0
Sugarbeets plant response rating [5, 20]: 0
Sugarbeets plant response rating [5, 24]: 0
Sugarbeets plant response rating [5, 21]: 3
Sugarbeets plant response rating [5, 22]: 3
Sugarbeets plant response rating [5, 23]: 0
Plant response rating, Wheat [6, 17]: 0
Plant response rating, Wheat [6, 19]: 0
Wheat plant response rating [6, 20]: 0
Wheat plant response rating [6, 24]: 0
Wheat plant response rating [6, 21]: 0
Wheat plant response rating [6, 22]: 0
Wheat plant response rating [6, 23]: 3
Plant response rating, Nutsedge [7, 17]: 0
Nutsedge plant response rating [7, 18]: 0
Plant response rating, Nutsedge [7, 19]: 0
Nutsedge plant response rating [7, 20]: 0
Nutsedge plant response rating [7, 24]: 0
Nutsedge plant response rating [7, 21]: 0
Nutsedge plant response rating [7, 22]: 0
Nutsedge plant response rating [7, 23]: 0
Plant response rating, Wild oats [8, 17]: 0
Plant response rating, Wild oats [8, 19]: 0
Wild oats plant response rating [8, 20]: 2
Wild oats plant response rating [8, 24]: 0
Wild oats plant response rating [8, 21]: 0
Wild oats plant response rating [8, 22]: 0
Wild oats plant response rating [8, 23]: 5
Bedstraw plant response rating [9, 18]: 0
Plant response rating, Bedstraw [9, 19]: 0
Bedstraw plant response rating [9, 20]: 0
Bedstraw plant response rating [9, 24]: 0
Bedstraw plant response rating [9, 21]: 0
Bedstraw plant response rating [9, 23]: 0
Plant response rating, Morningglory [10, 17]: 6
Morningglory plant response rating [10, 18]: 6
Plant response rating, Morningglory [10, 19]: 0
Morningglory plant response rating [10, 20]: 0
Morningglory plant response rating [10, 24]: 0
Morningglory plant response rating [10, 21]: 7
Morningglory plant response rating [10, 22]: 9
Morningglory plant response rating [10, 23]: 0
Plant response rating, Redroot pigweed [11, 17]: 1
Redroot pigweed plant response rating [11, 18]: 3
Plant response rating, Redroot pigweed [11, 19]: 0
Redroot pigweed plant response rating [11, 20]: 2
Redroot pigweed plant response rating [11, 24]: 0
Redroot pigweed plant response rating [11, 21]: 5
Redroot pigweed plant response rating [11, 22]: 7
Redroot pigweed plant response rating [11, 23]: 3
Plant response rating, Cocklebur [12, 17]: 0
Cocklebur plant response rating [12, 18]: 0
Plant response rating, Cocklebur [12, 19]: 0
Cocklebur plant response rating [12, 20]: 0
Cocklebur plant response rating [12, 24]: 0
Cocklebur plant response rating [12, 21]: 2
Cocklebur plant response rating [12, 22]: 2
Cocklebur plant response rating [12, 23]: 0
Plant response rating, Crabgrass [13, 17]: 3
Crabgrass plant response rating [13, 18]: 4
Plant response rating, Crabgrass [13, 19]: 9
Crabgrass plant response rating [13, 20]: 9
Crabgrass plant response rating [13, 24]: 6
Crabgrass plant response rating [13, 21]: 6
Crabgrass plant response rating [13, 22]: 6
Crabgrass plant response rating [13, 23]: 9
Plant response rating, Rape [14, 17]: 0
Rape plant response rating [14, 18]: 0
Plant response rating, Rape [14, 19]: 0
Rape plant response rating [14, 20]: 0
Rape plant response rating [14, 24]: 0
Rape plant response rating [14, 21]: 0
Rape plant response rating [14, 22]: 0
Rape plant response rating [14, 23]: 0
Plant response rating, Giant foxtail [15, 17]: 2
Giant foxtail plant response rating [15, 18]: 2
Plant response rating, Giant foxtail [15, 19]: 9
Giant foxtail plant response rating [15, 20]: 9
Giant foxtail plant response rating [15, 24]: 9
Giant foxtail plant response rating [15, 21]: 5
Giant foxtail plant response rating [15, 22]: 7
Giant foxtail plant response rating [15, 23]: 9
Plant response rating, Velvetleaf [16, 17]: 0
Plant response rating, Velvetleaf [16, 19]: 0
Velvetleaf plant response rating [16, 20]: 0
Velvetleaf plant response rating [16, 24]: 0
Velvetleaf plant response rating [16, 21]: 3
Velvetleaf plant response rating [16, 22]: 4
Velvetleaf plant response rating [16, 23]: 0
